These results are taken from PMC6757289, “Design and Characterization of SGK3-PROTAC1, an Isoform Specific SGK3 Kinase PROTAC Degrader” (ACS Chemical Biology, 2019).

For one experiment, the system named is CAMA-1 cells. Put plainly: Cell growth (confluency, Incucyte S3). The class given is cell-based. As to conditions: CAMA-1, 1 μM. The procedure:
(§1) Figure 6 SGK3-PROTAC1-mediated degradation of SGK3 further inhibiting the growth of cancer cell lines treated with PI3K-Akt pathway inhibitors. CAMA-1 (A, C) and ZR-75-1 (B, D) were treated with compounds as indicated either as monotherapy or in combination, and confluency was measured on the Incucyte S3 every 4 h for up to 4 weeks.
(§2) For growth assays, ZR-75-1 cells were seeded in 96-well plates at a density of 6000 cells/well and left to adhere overnight. Cells were then treated with compounds as described in the figure legends and imaged every 4 h on the Incucyte S3 (Essen Bioscience) for up to 4 weeks to give a measure of cell confluency. Media were refreshed every 4–5 days.
(§3) Supplementary Figure S3. SGK3-PROTAC compounds have no effect on cell growth. CAMA-1 and ZR-75-1
(§4) confluency was m easured every 4 h on Incucyte S3.
(§5) (1 picture or pasted object on this page, not shown here)

The subject of the next experiment is ZR-75-1 cells. Put plainly: Cell growth (confluency, Incucyte S3). To be noted: ZR-75-1, 1 μM. The class given is cell-based. The procedure: as §1, §2, §3, §4, §5
The target of a further experiment is S6K1 (Homo sapiens, UniProt P23443, T412E). In words: IC50 determination, biochemical kinase assay. As to conditions: not in the presence of VHL. The procedure: (§6) IC50 determination was performed at the MRC PPU International Centre for Protein Kinase Profiling, according to the protocol previously described[47],[48]
Sequence of S6K1 (P23443 1-421 T412E limits assumed): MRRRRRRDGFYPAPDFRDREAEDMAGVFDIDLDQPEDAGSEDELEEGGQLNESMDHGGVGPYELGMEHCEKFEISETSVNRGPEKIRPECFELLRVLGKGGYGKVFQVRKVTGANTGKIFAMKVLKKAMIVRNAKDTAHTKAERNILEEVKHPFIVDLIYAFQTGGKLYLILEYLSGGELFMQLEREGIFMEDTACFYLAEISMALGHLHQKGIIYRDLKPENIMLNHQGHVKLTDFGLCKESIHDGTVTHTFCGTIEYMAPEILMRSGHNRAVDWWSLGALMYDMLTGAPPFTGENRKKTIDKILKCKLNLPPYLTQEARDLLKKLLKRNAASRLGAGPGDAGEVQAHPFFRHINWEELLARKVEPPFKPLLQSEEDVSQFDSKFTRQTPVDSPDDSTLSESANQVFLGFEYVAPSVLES
Experiment [1] deals with T1, SGK3 (Homo sapiens, UniProt Q96BR1).
T1 sequence (Q96BR1 1-496): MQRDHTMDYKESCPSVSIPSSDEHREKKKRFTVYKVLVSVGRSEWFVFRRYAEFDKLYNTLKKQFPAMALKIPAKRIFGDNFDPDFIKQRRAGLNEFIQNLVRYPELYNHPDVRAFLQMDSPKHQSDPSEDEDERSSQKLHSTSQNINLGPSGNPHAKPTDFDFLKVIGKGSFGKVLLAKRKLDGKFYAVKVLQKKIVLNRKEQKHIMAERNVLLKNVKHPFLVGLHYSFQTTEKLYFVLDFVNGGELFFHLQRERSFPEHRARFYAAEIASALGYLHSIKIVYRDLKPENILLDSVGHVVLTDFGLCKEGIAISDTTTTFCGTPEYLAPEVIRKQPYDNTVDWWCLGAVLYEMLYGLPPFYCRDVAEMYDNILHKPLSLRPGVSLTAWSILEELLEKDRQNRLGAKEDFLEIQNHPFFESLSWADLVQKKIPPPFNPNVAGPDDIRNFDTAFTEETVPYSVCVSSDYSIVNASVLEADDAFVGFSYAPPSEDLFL
Put plainly: IC50 determination, biochemical kinase assay. To be noted: for IC50: not in the presence of VHL. The procedure: as §6

Another experiment deals with T2, SGK1 (Homo sapiens, UniProt O00141, S422D).
T2 sequence (O00141 60-431 S422D limits assumed): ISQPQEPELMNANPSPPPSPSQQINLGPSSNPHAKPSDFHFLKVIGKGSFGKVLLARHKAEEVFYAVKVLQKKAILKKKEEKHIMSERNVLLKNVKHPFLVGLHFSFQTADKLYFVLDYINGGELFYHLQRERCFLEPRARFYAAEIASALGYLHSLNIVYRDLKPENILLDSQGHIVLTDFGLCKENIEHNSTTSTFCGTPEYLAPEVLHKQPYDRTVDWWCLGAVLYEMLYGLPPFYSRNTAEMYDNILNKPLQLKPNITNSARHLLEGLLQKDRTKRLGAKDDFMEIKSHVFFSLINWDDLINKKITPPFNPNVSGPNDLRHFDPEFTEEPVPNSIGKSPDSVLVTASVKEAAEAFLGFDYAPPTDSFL
Put plainly: IC50 determination, biochemical kinase assay. To be noted: not in the presence of VHL.

For experiment [2], the target named is T1, SGK3. Put plainly: SGK3 degradation in HEK293 cells, immunoblot. The experiment is classed as cell-based. More on the design: reduced endogenous SGK isoform or S6K1 expression when administered to HEK293 cells for 48 h; endogenous in cells; host or cells: HEK293. As to conditions: for effect on SGK3-PROTAC1-mediated degradation of SGK3: HEK293, pretreatment, 6 h 0.3 µM SGK3-PROTAC1; for effect on DAT1-induced degradation of SGK3: HEK293, MLN4924 3 μM, MG132 50 μM. The method, then: Figure 1 Design and cellular activity of first generation SGK3 PROTACs. (A) Structure of compound 14H, previously published by Sanofi as an inhibitor of SGK3. (B) Starting material for SGK PROTACs. […] (C) Structures of first generation SGK PROTACs. SGK and E3 ligase targeting motifs were joined by a 3xPEG linker to produce the PROTACs. (D) HEK293 cells were treated for 48 h with increasing concentrations of each PROTAC compound from 0.1 nM to 10 μM. Cell lysates were subjected to immunoblot analysis with the indicated antibodies, and SGK3 protein levels were quantified in Image Studio Lite software (Licor).
Figure 2 Design and cellular evaluation of second and third generation SGK PROTACs. (A) Chemical structure of compounds DAT5–12, expanding upon DAT1. (B) Chemical structure of cisSGK3-PROTAC1. (C) HEK293 cells were treated for 48 h with increasing concentrations of each PROTAC compound from 1 nM to 10 μM. Cell lysates were subjected to immunoblot analysis with the indicated antibodies, and SGK3 protein levels quantified in Image Studio Lite software. (D) HEK293 cells were treated for 48 h with increasing concentrations of each PROTAC compound from 1 nM to 10 μM. Cell lysates were subjected to immunoblot analysis with the indicated antibodies, and SGK3 and S6K1 protein levels were quantified in Image Studio Lite software. TEXT PRINTED IN THE PICTURE: (C) DAT1: % SGK3: 100 (48h Treatment (μM): 0); % SGK3: 94 (48h Treatment (μM): 0.001); % SGK3: 82 (48h Treatment (μM): 0.01); % SGK3: 70 (48h Treatment (μM): 0.1); % SGK3: 52 (48h Treatment (μM): 1); % SGK3: 31 (48h Treatment (μM): 10) | (C) DAT5: % SGK3: 100 (48h Treatment (μM): 0); % SGK3: 104 (48h Treatment (μM): 0.001); % SGK3: 82 (48h Treatment (μM): 0.01); % SGK3: 92 (48h Treatment (μM): 0.1); % SGK3: 73 (48h Treatment (μM): 1); % SGK3: 36 (48h Treatment (μM): 10) | (C) DAT6: % SGK3: 100 (48h Treatment (μM): 0); % SGK3: 105 (48h Treatment (μM): 0.001); % SGK3: 90 (48h Treatment (μM): 0.01); % SGK3: 71 (48h Treatment (μM): 0.1); % SGK3: 44 (48h Treatment (μM): 1); % SGK3: 20 (48h Treatment (μM): 10) | (C) DAT7: % SGK3: 100 (48h Treatment (μM): 0); % SGK3: 77 (48h Treatment (μM): 0.001); % SGK3: 80 (48h Treatment (μM): 0.01); % SGK3: 95 (48h Treatment (μM): 0.1); % SGK3: 37 (48h Treatment (μM): 1); % SGK3: 29 (48h Treatment (μM): 10) | (D) DAT8: % SGK3: 100 (48h Treatment (μM): 0); % SGK3: 97 (48h Treatment (μM): 0.001); % SGK3: 107 (48h Treatment (μM): 0.01); % SGK3: 34 (48h Treatment (μM): 0.1); % SGK3: 24 (48h Treatment (μM): 1); % SGK3: 19 (48h Treatment (μM): 10) | (D) DAT9: % SGK3: 100 (48h Treatment (μM): 0); % SGK3: 105 (48h Treatment (μM): 0.001); % SGK3: 71 (48h Treatment (μM): 0.01); % SGK3: 40 (48h Treatment (μM): 0.1); % SGK3: 11 (48h Treatment (μM): 1); % SGK3: 12 (48h Treatment (μM): 10) | (D) DAT10: % SGK3: 100 (48h Treatment (μM): 0); % SGK3: 100 (48h Treatment (μM): 0.001); % SGK3: 76 (48h Treatment (μM): 0.01); % SGK3: 54 (48h Treatment (μM): 0.1); % SGK3: 11 (48h Treatment (μM): 1); % SGK3: 9 (48h Treatment (μM): 10) | (D) DAT11: % SGK3: 100 (48h Treatment (μM): 0); % SGK3: 96 (48h Treatment (μM): 0.001); % SGK3: 97 (48h Treatment (μM): 0.01); % SGK3: 41 (48h Treatment (μM): 0.1); % SGK3: 32 (48h Treatment (μM): 1); % SGK3: 29 (48h Treatment (μM): 10) | (D) DAT12: % SGK3: 100 (48h Treatment (μM): 0); % SGK3: 106 (48h Treatment (μM): 0.001); % SGK3: 84 (48h Treatment (μM): 0.01); % SGK3: 79 (48h Treatment (μM): 0.1); % SGK3: 32 (48h Treatment (μM): 1); % SGK3: 29 (48h Treatment (μM): 10) DOUBTS OF THE COPYIST ABOUT THIS PICTURE: All % SGK3 values are quantification numbers printed under immunoblot lanes; each was assigned to a concentration by lane position / DAT9 and DAT10, % SGK3: the first numbers are printed run together ('100105', '100100') and were split as 100 | 105 and 100 | 100
Figure 3 Characterization of cellular activities of SGK3-PROTAC1 and cisSGK3-PROTAC1. […]
On the technique in general: A western blot detects proteins with antibodies after separation by electrophoresis.

Where a SMILES comes first, the peptide text is derived from it. The star is where a group is joined. Cbz = O=C(OCc1ccccc1)*

Take `NC1(C(=O)N[C@@H](CCO)c2ccc(Cl)cc2)CCN(c2ncnc3[nH]ccc23)CC1` [AZD5363, reference compound]: the “growth, PI3K or Akt inhibitor monotherapy” value in the experiment on CAMA-1 cells and in the experiment with ZR-75-1 cells was “substantially reduced growth” in each case.

Regarding `COc1ccc(Cl)c(S(=O)(=O)Nc2ccc(-c3nc(OC[C@H]4CN(CCOCCOCCOCC(=O)N[C@H](C(=O)N5C[C@H](O)C[C@H]5C(=O)NCc5ccc(-c6scnc6C)cc5)C(C)(C)C)CCO4)c4c(C)n[nH]c4n3)cc2)c1` [DAT2], the concentration for half-maximal inhibition (IC50) – broadly, the concentration that inhibits the measured activity by half – at S6K1 was 0.18 µM; at SGK3 [1], 0.19 µM; at SGK1, 0.4 µM. The “fold more potent inhibition of SGK1 and SGK3 than DAT1” value at SGK3 [1] (SGK1 and SGK3) is recorded as 2–4 fold.

Consider `Cc1ccc(F)c(S(=O)(=O)Nc2ccc(-c3nc(OC[C@H]4CN(CCOCCOCCOCC(=O)NCCNc5cccc6c5C(=O)N(C5CCC(=O)NC5=O)C6=O)CCO4)c4cn[nH]c4n3)cc2)c1` (some centres unmarked) [DAT3], for which the IC50 at S6K1 was 0.24 µM; on SGK3 [1], 0.64 µM; on SGK1, 1 µM.

With `COc1ccc(Cl)c(S(=O)(=O)Nc2ccc(-c3nc(OC[C@H]4CN(CCOCCOCCOCC(=O)NCCNc5cccc6c5C(=O)N(C5CCC(=O)NC5=O)C6=O)CCO4)c4c(C)n[nH]c4n3)cc2)c1` (some centres unmarked) [DAT4], the IC50 came to 0.19 µM on S6K1, 0.54 µM on SGK3 [1] and 0.6 µM on SGK1.

With `Cc1ccc(F)c(S(=O)(=O)Nc2ccc(-c3nc(OC[C@H]4CN(CCCCCCOCCOCCOCCOCC(=O)N[C@H](C(=O)N5C[C@H](O)C[C@H]5C(=O)NCc5ccc(-c6scnc6C)cc5)C(C)(C)C)CCO4)c4cn[nH]c4n3)cc2)c1` [DAT9], the IC50 on S6K1 came out at 4.53 µM; on SGK3 [1], 1.79 µM; on SGK1, 8.99 µM. Moreover, the remaining activity (usually the signal under treatment as a percentage of the control signal) at 0.001 µM at SGK3 [2] (HEK293, 48 h, 0.001 μM, Figure 2) is 105%. The remaining activity at 0.01 µM at SGK3 [2] (HEK293, 48 h, 0.01 μM, Figure 2) worked out at 71%. Besides, on SGK3 [2] (HEK293, 48 h, 0.1 μM, Figure 2), the remaining activity at 0.1 µM was found to be 40%. Moreover, the remaining activity at 1 µM on SGK3 [2] (HEK293, 48 h, 1 μM, Figure 2) amounted to 11%. The remaining activity at 10 µM at SGK3 [2] (HEK293, 48 h, 10 μM, Figure 2) was 12%.

On to `CS(=O)(=O)N1CCN(Cc2cc3nc(-c4cccc5[nH]ncc45)nc(N4CCOCC4)c3s2)CC1` [GDC0941, 2-(1H-Indazol-4-Yl)-6-(4-Methanesulfonyl-Piperazin-1-Ylmethyl)-4-Morpholin-4-Yl-t Hieno[3,2-d]Pyrimidine, reference compound], for which the “growth, PI3K or Akt inhibitor monotherapy” value in the experiment on CAMA-1 cells and with ZR-75-1 cells was “substantially reduced growth” in each case.

Regarding `CC(C)C[C@@H](C=O)NC(=O)[C@H](CC(C)C)NC(=O)[C@H](CC(C)C)NC(=O)OCc1ccccc1` [MG132, reference compound] (Cbz-Leu-Leu-Leu-aldehyde), at SGK3 [2], the “effect on SGK3-PROTAC1-mediated degradation of SGK3” value is reported as “prevented” and the “effect on DAT1-induced degradation of SGK3” value was “blocked”.

With `NS(=O)(=O)OC[C@@H]1C[C@@H](n2ccc3c(N[C@H]4CCc5ccccc54)ncnc32)C[C@@H]1O` [MLN4924, reference compound], at SGK3 [2], the “effect on SGK3-PROTAC1-mediated degradation of SGK3” value is given as “prevented” and the “effect on DAT1-induced degradation of SGK3” value was “blocked”.
